According to patent US4339390A, “Preferential immunoreactivity of syn-isomer of cortisol derivative” (Abbott Laboratories, priority 1981, dated 1982):

Tested on: cortisol antibodies (antisera to cortisol-3-carboxymethyloxime-BSA)
Test: competitive radioimmunoassay, binding affinity curves on antibody-coated polystyrene beads
Design: species or system rabbit
Procedure: Female rabbits were immunized subcutaneously at multiple sites with 1 mg of cortisol-3-CMO-BSA conjugate, prepared according to method of example 1, in saline emulsified with complete Freund's adjuvant (Difco Laboratories, Detroit, Michigan) on weeks 1, 2, 3 and 4 with booster injections of […] of the immunogen being given at longer intervals according to the antibody titer. Blood was collected from the marginal ear vein after three months of immunization. The serum was harvested and frozen for future use.
Into appropriately labeled 12×75 mm plastic tubes containing polystyrene beads coated with cortisol antibodies generated according to this disclosure, was added 25 μl of standard serum, followed by 300 μl of radioactive assay solution containing a mixture of borate buffered saline, pH 8.8; 0.12% Triton X 100 and approximately 0.25 ng/ml of either the syn, anti or racemic mixture of ^125 I labeled tyrosine methyl ester derivative of cortisol-21-acetate-3-carboxymethyloxime. The reaction mixture was incubated with agitation at room temperature for one hour. The liquid contents of the tubes were aspirated and the radioactivity bound to the antibody coated beads was counted. The percent bound versus cortisol concentration was plotted. […] Knowing this preference, it would be advantageous in terms of sensitivity and specificity to employ only the syn isomer in assays for the determination of cortisol in biological fluids.

## COC(=O)[C@H](Cc1ccc(O)c([125I])c1)NC(=O)CO/N=C1\C=C2CC[C@@H]3[C@H]([C@@H](O)C[C@@]4(C)[C@H]3CC[C@]4(O)C(=O)COC(C)=O)[C@@]2(C)CC1 [I^125 syn isomer]
approx. 0.25 ng/ml tracer, room temperature, one hour, borate buffered saline pH 8.8, compared with anti isomer and racemic mixture
  affinity of antibody for labeled antigen conjugate (percent bound versus cortisol concentration): demonstrably greater affinity
Compared with I^125 -anti-isomer and I^125 -mixture (syn and anti)
  affinity constant calculated from slope of standard curves (FIG. 1): highest
Compared with labeled anti-isomer and racemic mixture
  immunoavidity of antisera for the labeled isomer: significant preference in immunoavidity
Standard curves
  sensitivity of the antibody for the labeled isomer (FIG. 1): increased sensitivity
